The values below come from PMC4500996, “Ortho-methylated 3-hydroxypyridines hinder hen egg-white lysozyme fibrillogenesis” (Scientific Reports, 2015).

Molecules are shown by their SMILES.

T1 sequence (P00698 19-147): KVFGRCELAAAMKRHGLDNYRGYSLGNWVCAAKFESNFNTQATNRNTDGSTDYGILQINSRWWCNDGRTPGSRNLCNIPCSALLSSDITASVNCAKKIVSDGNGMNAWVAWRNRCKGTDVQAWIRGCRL

This assay concerns the target T1, hen egg-white lysozyme (HEWL) (Gallus gallus, UniProt P00698).
T1 construct: gene LYZ
Kind of assay: intrinsic Trp fluorescence quenching titration ([…] nm), two-site fit in DynaFit. It counts as binding. The following applies: pH 2.0, 37 °C, 2 mM sodium chloroacetate, 10 µM HEWL; stronger of two independent sites; cationic ligand.
For the molecule `Cc1ncccc1O` [2 m-3HP, 3-hydroxy-2-methylpyridine], the “Ka (M^-1).10^-3( ^a)” value was “(9.3 ± 0.2)·10^3”.

Take `Cc1ccc(O)c(C)n1` [2,6dm-3HP, 3-hydroxy-2,6-dimethylpyridine]: the “Ka (M^-1).10^-3( ^a)” value was “(8.9 ± 0.2)·10^3”. With `Cc1ccc(O)cn1` [6 m-3HP, 3-hydroxy-6-methylpyridine] the entry was “(7.4 ± 0.1)·10^3”.
